# Laboratory results as given in patent US10031125B2, “Diagnosis and treatment of invasive aspergillosis” (THE BRIGHAM AND WOMEN'S HOSPITAL, INC., priority 2012, dated 2018).
# Starred links: 1 amine or outer side, 2 acyl side, 3 side chain; linkers in the order of their positions; H or OH if unused. Positions of bridges follow the written chain, without caps; N, C: chain ends. Non-standard residues stand in square brackets, D forms with d. Residues, ends and D or L forms follow the SMILES beside them. *: point of attachment. hTyr(3S-OH,4S-OH,3'-OSO3H) = N[C@H](C(=O)O)[C@H](O)[C@@H](O)c1ccc(O)c(OS(=O)(=O)O)c1; Orn(4R-OH,5R-OH) = O=C([C@H](C[C@@H](O)[C@@H](O)N[*:3])N[*:1])[*:2]; Pro(3S-OH,4S-Me) = C[C@H]1CN[C@H](C(=O)O)[C@H]1O; X1 = CCCCCOc1ccc(-c2cc(-c3ccc(C(=O)*)cc3)no2)cc1; Gln(3R-OH) = NC(=O)C[C@@H](O)[C@H](N)C(=O)O; Hyp = O=C(O)[C@@H]1C[C@@H](O)CN1
# Key:
# [1] = test system: A. terreus; settings: some isolates; Baddley et al., J. Clin. Microbiol. 2009; cited from earlier work
# [2] = test system: Aspergillus fumigatus; assay: Antifungal exposure modulates the release of VOCs in A. fumigatus in vitro (headspace GC-MS); type: cell-based; settings: for change in key A. fumigatus VOC features at 24 hours: compared to matched control samples
# Protocol: For each experiment, 10^4 conidia were inoculated into 5 mL of microbial media (either nutrient Yeast Extract Peptone Dextrose (YPD) broth, nutrient poor Aspergillus minimal media (Pontecorvo et al., Advan Genet 1953; 5:141-238), or under iron-starved, alkaline stress, or nitrogen-depleted conditions (McDonagh et al., PLoS Pathog 2008; 4:e1000154)) in 20 mL glass vials with an airtight crimp top incorporating a rubber septum. Cultures were incubated for 24-144 hours at 200 rpm and 37° C. and headspace gas was dynamically adsorbed, using argon carrier gas and an air sampling pump calibrated to 20 mL/minute, onto Markes thermal desorption traps containing tandem beds of Tenax TA (200 mg), Carbograph 1 TD (100 mg), and Carboxen 1003 (100 mg), optimized to retain VOCs of diverse size and polarity.
# Headspace VOCs were also collected after exposure of a subset of fungal isolates to the antifungal drugs voriconazole, liposomal amphotericin B, and micafungin, each at a concentration of […].
# VOCs were desorbed onto a dual GC-MS/DMS system (FIG. 1)—the eluent from the gas chromatograph was split between the MS, to allow identification of each compound, and the DMS, an extremely sensitive and selective gas detector that can be easily used as a point-of-care gas detection device, to determine the mobility pattern for each compound. The NIST MS Search 2.0 Library was used to identify VOCs in the total ion chromatogram (TIC) of the GC-MS data. Differences in spectral features of DMS output were visually distinguished between the positive ion spectra of A. fumigatus and A. terreus and principal component analysis (PCA) was used to evaluate the degree of class discrimination between these fungal species using algorithms in MATLAB (Version R2012a).
# Whether exposure to antifungal drugs might modulate VOC release in Aspergillus fumigatus was assessed in vitro.
# [3] = added to 48-hour hyphal cultures, after 24 hours, 1.0 mg/mL
compound,measurement,setting,value
"C[C@@H]1[C@H](O)[C@@H](C)/C=C/C=C/C=C/C=C/C=C/C=C/C=C/[C@H](O[C@@H]2O[C@H](C)[C@@H](O)[C@H](N)[C@@H]2O)C[C@@H]2O[C@](O)(C[C@@H](O)C[C@@H](O)[C@H](O)CC[C@@H](O)C[C@@H](O)CC(=O)O[C@H]1C)C[C@H](O)[C@H]2C(=O)O [AMB, amphotericin B]",susceptibility of A. terreus isolates,[1],resistant
"CCCCCOc1ccc(-c2cc(-c3ccc(C(=O)N[C@H]4C[C@@H](O)[C@@H](O)NC(=O)[C@@H]5[C@@H](O)[C@@H](C)CN5C(=O)[C@H]([C@H](O)CC(N)=O)NC(=O)[C@H]([C@H](O)[C@@H](O)c5ccc(O)c(OS(=O)(=O)O)c5)NC(=O)[C@@H]5C[C@@H](O)CN5C(=O)[C@H]([C@@H](C)O)NC4=O)cc3)no2)cc1 [micafungin] (X1-[Orn(4R-OH,5R-OH)]T[Hyp][hTyr(3S-OH,4S-OH,3'-OSO3H)][Gln(3R-OH)][Pro(3S-OH,4S-Me)]; lactam 1-C)",increase in some of the key A. fumigatus VOC features,"[2]; added to 48-hour hyphal cultures, after 24 hours, compared to matched control samples without drug, 1.0 mg/mL",≤ 17 fold
same,change in key A. fumigatus VOC features at 24 hours,[2]; [3],initial increase
same,key A. fumigatus VOC features with longer incubation,[2]; longer duration of incubation and hyphal death,attenuation
C[C@@H](c1ncncc1F)[C@](O)(Cn1cncn1)c1ccc(F)cc1F [voriconazole],change in key A. fumigatus VOC features at 24 hours,[2]; [3],near-complete attenuation
